Measured values as given in article PMC6937593, “Anti-metastatic Inhibitors of Lysyl Oxidase (LOX): Design and Structure–Activity Relationships” (Journal of Medicinal Chemistry, 2019).
Several values for one entry are separate records, joined by “and”; a condition that tells them apart may be missing. Equal values may be shown once. Where a name gives a salt, the structure may show the parent alone. Read-outs that look alike come from different tables or passages of the source.

Key:
LOX = molecular target: T1, LOX (Sus scrofa, UniProt P45845); test: LOX enzyme activity assay (HRP-coupled fluorescent, cadaverine substrate); assay type: biochemical, pig; settings: for fold more potent than HTS hit 2a (LOX IC50): vs 2a;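 as to all read-outs here: LOX isolated from porcine skin, nine-point dilution series starting at 100 µM, 20 min preincubation with enzyme, BAPN serving as positive control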
T1 construct: LOX enzyme was extracted from pig skin by the method of Shackleton and Hulmes; from tissue; host or cells: pig skin
T1 sequence (P45845 1-249): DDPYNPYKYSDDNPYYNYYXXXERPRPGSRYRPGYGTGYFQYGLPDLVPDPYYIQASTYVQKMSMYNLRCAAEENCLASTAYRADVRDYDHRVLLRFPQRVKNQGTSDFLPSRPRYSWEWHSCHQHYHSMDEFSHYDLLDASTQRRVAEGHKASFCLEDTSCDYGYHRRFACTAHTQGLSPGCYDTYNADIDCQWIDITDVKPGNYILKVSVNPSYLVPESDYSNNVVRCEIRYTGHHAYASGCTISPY
Procedure: LOX enzyme was extracted from pig skin by the method of Shackleton and Hulmes.[24] LOX catalytic activity was determined using a horseradish peroxidase (HRP)-coupled fluorescent assay previously described,[19] with cadaverine hydrochloride as a substrate, BAPN as positive control, and a preincubation time of 20 min with nine dilutions from a top concentration of 100 μM.

MLM stability assay = assay type: in vitro ADME, mouse; settings: percentage of compound remaining after 30 min; 10 μM
Procedure: Mouse liver microsomes (BALB/c) were purchased from Tebu-bio, and the assay was performed by methods previously described.[19] Inhibitors at 10 μM concentration incubated with the microsomes were assessed at 0, 15, and 30 min. Control samples containing no microsomes and no cofactors were also assessed at 0 and 30 min. Samples were extracted by protein precipitation and centrifugation for 20 min in a refrigerated centrifuge (4 °C) at 3700 rpm. The supernatant was analyzed by LCMS/MS for % metabolized over time.

In vivo PK in mice = test: In vivo PK in mice; set-up: species or system mouse; settings: mouse plasma, single oral gavage dose 50 mg/kg
Procedure: Female BALB/c or CD1 mice (Charles River Laboratories) at 6 weeks of age were used for the PK analyses. The mice were dosed orally by gavage (50 mg/kg in dimethyl sulfoxide (DMSO)/water 1:19 v/v; n = 21) or intravenously in the tail vein (10 mg/kg in DMSO/Tween20/saline 10:1:89 v/v/v; n = 24). […] Three mice were used per time point per route. They were placed under halothane or isoflurane anesthesia, and blood for plasma preparation was taken by terminal cardiac puncture into heparinized syringes. Plasma samples were snap-frozen in liquid nitrogen and then stored at −80 °C prior to analysis.

[1] = n ≥ 2, n = 2: individual values, n > 2: geometric mean [95% CI], 20 min preincubation, read-out: LOX IC50

## NCc1ccc(S(=O)(=O)N2CCOCC2)s1 [2i, (5-(Morpholinosulfonyl)thiophen-2-yl)methanamine]
LOX; [1]
  IC50: 20 µM and 25 µM

## NCc1ccc(S(=O)(=O)N2CCCCC2)s1 [2a, (5-(Piperidin-1-ylsulfonyl)thiophen-2-yl)methanamine]
LOX; high-throughput screen hit, read-out: mean IC50 (LOX, HTS hit)
  IC50: 19 µM
LOX; [1]
  IC50: 17 µM and 21 µM

## CS(=O)(=O)N1CCCN(S(=O)(=O)c2ccc(CN)s2)CC1 [2m, (5-(4-(Methylsulfonyl)-1,4-diazepan-1-ylsulfonyl)thiophen-2-yl)methanamine]
MLM stability assay
  MLM stability (%): 37%
LOX; [1]
  IC50: 0.93 µM

## NCc1ccc(Sc2ccccc2)s1 [4b, (5-(Phenylthio)thiophen-2-yl)methanamine Hydrochloride]
LOX; [1]
  IC50: 14 µM and 27 µM

## NCc1ccc(S(=O)(=O)NCc2ccccc2)s1 [4c, 5-(Aminomethyl)-N-benzylthiophene-2-sulfonamide]
LOX; [1]
  IC50: 15 µM

## NCc1ccc(S(=O)(=O)N2CCCc3ccccc32)s1 [2h, (5-(3,4-Dihydroquinolin-1(2H)-ylsulfonyl)thiophen-2-yl)methanamine]
LOX; [1]
  IC50: 2.5 µM and 2.7 µM

## NCc1ccc(C(=O)NCc2ccccc2)o1 [5e, 5-(Aminomethyl)-N-benzylfuran-2-carboxamide]
LOX; [1]
  IC50: 40 µM and 45 µM

## NCc1ccc(S(=O)(=O)N2CCc3ccccc32)s1 [2g, (5-(Indolin-1-ylsulfonyl)thiophen-2-yl)methanamine]
LOX; [1]
  IC50: 1.9 µM
LOX
  fold more potent than HTS hit 2a (LOX IC50): ~10 fold

## CN(C)S(=O)(=O)c1ccc(CN)s1 [2b, 5-(Aminomethyl)-N,N-dimethylthiophene-2-sulfonamide]
LOX; [1]
  IC50: 70 µM and 72 µM

## NCc1ccc(S(=O)(=O)N2CCC[C@H]2C(N)=O)s1 [2d, (S)-1-(5-(Aminomethyl)thiophen-2-ylsulfonyl)pyrrolidine-2-carboxamide]
LOX; [1]
  IC50: 11 µM and 13 µM

## Cc1cc(CN)sc1S(=O)(=O)N1CCc2ccccc21 [5f, (5-(Indolin-1-ylsulfonyl)-4-methylthiophen-2-yl)methanamine]
LOX; [1]
  IC50: 12 µM and 13 µM

## Cl.Cl.NCc1ccc(S(=O)(=O)N2CCCNCC2)s1 [2j, (5-(1,4-Diazepan-1-ylsulfonyl)thiophen-2-yl)methanamine Dihydrochloride]
LOX; [1]
  IC50: 9.4 µM and 12.7 µM
LOX
  fold more potent than HTS hit 2a (LOX IC50): ~2 fold

## CNCc1ccc(S(=O)(=O)c2ccccc2)s1 [6a, N-Methyl-1-(5-(phenylsulfonyl)thiophen-2-yl)methanamine Hydrochloride]
LOX; [1]
  IC50: > 100 µM

## CC(C)(C)c1cc(S(C)(=O)=O)cc(S(=O)(=O)c2ccc(CN)s2)c1 [9a, (5-((3-(tert-Butyl)-5-(methylsulfonyl)phenyl)sulfonyl)thiophen-2-yl)methanamine]
MLM stability assay
  MLM stability (%): 68%
In vivo PK in mice
  AUC(PO): 6.5 µM·h
  Cmax: 16000 nM

## NCc1ccc(S(=O)(=O)N2CCC[C@H]2CO)s1 [2e, (S)-(1-(5-(Aminomethyl)thiophen-2-ylsulfonyl)pyrrolidin-2-yl)methanol]
LOX; [1]
  IC50: 3.1 µM and 3.3 µM

## NCc1ccc(S(=O)(=O)c2cccc(S(=O)(=O)N3CCCC3)c2)s1 [8d, (5-((3-(Pyrrolidin-1-ylsulfonyl)phenyl)sulfonyl)thiophen-2-yl)methanamine]
MLM stability assay
  MLM stability (%): 59%
In vivo PK in mice
  AUC(PO): 0.22 µM·h
  Cmax: 830 nM

## CS(=O)(=O)c1ccc(-c2ccc(CN)s2)cc1 [4e, (5-(4-(Methylsulfonyl)phenyl)thiophen-2-yl)methanamine Hydrochloride]
LOX; [1]
  IC50: 13 µM

## NCc1ccc(S(=O)(=O)c2cccc(S(=O)(=O)N3CCC[C@H]3CO)c2)s1 [8e, (S)-(1-((3-((5-(Aminomethyl)thiophen-2-yl)sulfonyl)phenyl)sulfonyl)pyrrolidin-2-yl)methanol]
MLM stability assay
  MLM stability (%): 63%
In vivo PK in mice
  AUC(PO): 0.46 µM·h
  Cmax: 1500 nM

## NCc1sccc1S(=O)(=O)c1ccc2ccccc2c1 [7a, (3-(Naphthalen-2-ylsulfonyl)thiophen-2-yl)methanamine]
LOX
  LOX inhibition (in words): no inhibitory activity
LOX; [1]
  IC50: > 100 µM

## CN1CCCN(S(=O)(=O)c2ccc(CN)s2)CC1 [2k, (5-(4-Methyl-1,4-diazepan-1-ylsulfonyl)thiophen-2-yl)methanamine]
LOX; [1]
  IC50: 3.1 µM

## NC(=O)c1ccc(S(=O)(=O)c2ccccc2)s1 [6e, 5-(Phenylsulfonyl)thiophene-2-carboxamide]
LOX; [1]
  IC50: > 100 µM

## CCNS(=O)(=O)c1ccc(CN)s1 [2c, 5-(Aminomethyl)-N-ethylthiophene-2-sulfonamide]
LOX; [1]
  IC50: 27 µM and 31 µM

## O=S(=O)(c1ccc2ccccc2c1)c1ccc(/C=N/O)s1 [6f, 5-(Naphthalen-2-ylsulfonyl)thiophene-2-carbaldehyde Oxime]
LOX; [1]
  IC50: > 100 µM

## N=C(N)c1ccc(S(=O)(=O)c2ccccc2)s1 [6d, 5-(Phenylsulfonyl)thiophene-2-carboximidamide Hydrochloride]
LOX; [1]
  IC50: > 100 µM

## CC(N)c1ccc(S(=O)(=O)c2ccccc2)s1 (stereo not drawn) [6b, 1-(5-(Phenylsulfonyl)thiophen-2-yl)ethanamine]
LOX; [1]
  IC50: > 100 µM

## N#Cc1ccc(S(=O)(=O)c2ccccc2)s1 [6c, 5-(Phenylsulfonyl)thiophene-2-carbonitrile]
LOX; [1]
  IC50: > 100 µM

## NCc1ccc(C(=O)NCc2ccccc2)s1 [4d, 5-(Aminomethyl)-N-benzylthiophene-2-carboxamide]
LOX; [1]
  IC50: 20 µM and 25 µM

## Cl.Cl.NCc1ccc(S(=O)(=O)Cc2ccccc2)nc1 [5a, (6-(Benzylsulfonyl)pyridin-3-yl)methanamine Dihydrochloride]
LOX; [1]
  IC50: 25 µM
LOX; vs 5b
  fold weaker than aminomethylenethiophene counterpart 5b (LOX): ~10 fold

## CS(=O)(=O)c1ccc(S(=O)(=O)c2ccc(CN)s2)cc1-c1ccccc1 [9k, (5-((6-(Methylsulfonyl)-[1,1′-biphenyl]-3-yl)sulfonyl)thiophen-2-yl)methanamine]
MLM stability assay
  MLM stability (%): 41%
In vivo PK in mice
  AUC(PO): 1.4 µM·h
  Cmax: 1600 nM

## CS(=O)(=O)c1ccc(S(=O)(=O)c2ccc(CN)s2)cc1 [3i, (5-(4-(Methylsulfonyl)phenylsulfonyl)thiophen-2-yl)methanamine]
MLM stability assay
  MLM stability (%): 67%

## NCc1ccc(S(=O)(=O)N2CCCC2c2ccccc2)s1 (stereo not drawn) [2f, (5-(2-Phenylpyrrolidin-1-ylsulfonyl)thiophen-2-yl)methanamine]
LOX; [1]
  IC50: 3.8 µM

## NCc1ccc(S(=O)(=O)c2ccc3ccccc3c2)s1 [3g, (5-(Naphthalen-2-ylsulfonyl)thiophen-2-yl)methanamine]
MLM stability assay
  MLM stability (%): 100%
In vivo PK in mice
  AUC(PO): 4.2 µM·h
  Cmax: 15000 nM

## CCNC(=O)N1CCCN(S(=O)(=O)c2ccc(CN)s2)CC1 [2l, 4-(5-(Aminomethyl)thiophen-2-ylsulfonyl)-N-ethyl-1,4-diazepane-1-carboxamide]
LOX; [1]
  IC50: 2.1 µM

## CC(=O)NCCS(=O)(=O)c1ccc(S(=O)(=O)c2ccc(CN)s2)cc1.Cl [8j, N-(2-((4-((5-(Aminomethyl)thiophen-2-yl)sulfonyl)phenyl)sulfonyl)ethyl)-acetamide Hydrochloride]
MLM stability assay
  MLM stability (%): 91%
In vivo PK in mice
  AUC(PO): 0.36 µM·h
  Cmax: 380 nM

## NCc1cscc1S(=O)(=O)c1ccc2ccccc2c1 [7b, (4-(Naphthalen-2-ylsulfonyl)thiophen-3-yl)methanamine]
LOX
  LOX inhibition (in words): no inhibitory activity
LOX; [1]
  IC50: > 100 µM

## Cl.Cl.Cn1cc(-c2cc(S(=O)(=O)c3ccc(CN)s3)ccc2S(C)(=O)=O)cn1 [9j, (5-((3-(1-Methyl-1H-pyrazol-4-yl)-4-(methylsulfonyl)phenyl)sulfonyl)thiophen-2-yl)methanamine Dihydrochloride]
MLM stability assay
  MLM stability (%): 90%
In vivo PK in mice
  AUC(PO): 2.8 µM·h
  Cmax: 9600 nM
